The source of these data is ChEMBL document CHEMBL1141346, “Psammaplysenes C and D, cytotoxic alkaloids from Psammoclemma sp” (J Nat Prod, 2007).

Experiment [1] deals with T1, P2X purinoceptor 7 (Homo sapiens) (UniProt Q99572).
T1 sequence (whole entry): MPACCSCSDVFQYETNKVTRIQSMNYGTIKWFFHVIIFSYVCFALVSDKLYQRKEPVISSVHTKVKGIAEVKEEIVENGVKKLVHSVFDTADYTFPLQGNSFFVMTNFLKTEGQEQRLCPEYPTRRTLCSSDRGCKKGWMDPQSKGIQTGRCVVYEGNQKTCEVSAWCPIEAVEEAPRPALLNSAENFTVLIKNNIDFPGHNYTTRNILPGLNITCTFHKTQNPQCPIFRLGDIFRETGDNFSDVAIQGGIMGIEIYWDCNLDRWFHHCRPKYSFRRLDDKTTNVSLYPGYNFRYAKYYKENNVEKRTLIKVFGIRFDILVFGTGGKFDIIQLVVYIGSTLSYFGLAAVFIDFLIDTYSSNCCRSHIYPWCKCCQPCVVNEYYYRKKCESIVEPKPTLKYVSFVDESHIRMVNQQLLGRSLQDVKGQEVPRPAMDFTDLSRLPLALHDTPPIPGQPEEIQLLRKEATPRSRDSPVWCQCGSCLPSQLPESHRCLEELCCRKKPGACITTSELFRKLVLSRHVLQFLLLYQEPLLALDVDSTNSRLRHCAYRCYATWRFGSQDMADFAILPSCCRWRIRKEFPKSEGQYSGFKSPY
Kind of experiment: Antagonist activity at P2X7 receptor expressed in human THP1 cells after 90 mins. The arrangement: scale not given: the % may be the effect or the level left. It counts as functional, cell-based. To be noted: THP-1.

The subject of experiment [2] is THP-1. Kind of experiment: Cytotoxicity against human THP1 cells expressing P2X7 receptor after 21 hrs by Almar blue cytotoxicity assay. It counts as functional, cell-based. To be noted: THP-1, 21 h.

Structures are written as SMILES. pIC50: −log10 of the molar value.

For orientation: pIC50 means the IC50 on a negative log10 scale, so that one unit is a factor of ten. In experiment [1], `CN(C)CCCOc1c(Br)cc(/C=C/C(=O)N(C)CCCOc2c(Br)cc(CCN(C)C)cc2Br)cc1Br` [PSAMMAPLYSENE D] displayed an Activity of 72%. The pIC50 in experiment [2] is 5.15.
For `CN(C)CCCOc1ccc(/C=C/C(=O)N(C)CCCOc2c(Br)cc(CCN(C)C)cc2Br)cc1Br` [PSAMMAPLYSENE C], in that order: 44% and 5.15.
